Results taken from paper PMC10373114, “CDK2 regulates collapsed replication fork repair in CCNE1-amplified ovarian cancer cells via homologous recombination” (NAR Cancer, 2023).

Legend:
[1] = test system: MCF-7 cells; test: CyQuant proliferation assay; type: cell-based; conditions: proliferation, 5 days, CyQuant; mean of two independent replicates; read-out: MCF-7 IC50
Experimental: (§1) OVCAR-3, COV644, or MCF-7 cells were seeded at 1000 cells/well in 384-well black, clear bottom plates and allowed to adhere overnight at 37°C/5% CO2. The following day, cells were treated with compound in a 10-point dose response, 1:4 dilutions. After 5 days of incubation, CyQuant Direct Proliferation Assay was performed according to the manufacturer's instructions. Data were processed with GraphPad Prism using a four-parameter fit to calculate IC50.

[2] = test system: OVCAR-3 xenografts; test: OVCAR-3 xenograft tumor growth inhibition; type: in vivo, NOD-SCID mice
Experimental: Female NOD-SCID mice were purchased from Shanghai Lingchang BioTech Co., Ltd at 6–8 weeks old. Mice were housed in solid bottom polycarbonate ventilated cages at a temperature of 20–26°C in 40–70% humidity. Mice were kept on a 12-h light,
Twelve-hour dark cycle with regularly changed 100% filtered air. Municipal water and rodent diet were provided ad libitum. The general health of the animals was monitored through gross observation, regular body weight measurement, and monitoring of food and water intake. All procedures related to animal handling, care, and treatment were performed according to the protocol approved by the Institutional Animal Care and Use Committee of Shanghai Chempartner following the guidance of the Association for Assessment and Accreditation of Laboratory Animal Care (AAALAC).
OVCAR-3 cells were passaged through mice once, and a cell line was rederived from the tumor, named ‘T2A.’ OVCAR-3 T2A cells were cultured in RPMI 1640 media supplemented with 20% FBS and 0.01 mg/ml insulin. To establish the OVCAR-3 xenograft model, 6 × 10^6 cells per mouse were implanted subcutaneously into the right hind flank of NOD-SCID female mice. Cells were suspended in 50% Matrigel and 50% RPMI 1640 media serum free media prior to implantation.
In OVCAR-3 tumor growth inhibition studies, animals were randomized and treatment began when tumors reached ∼200 mm^3 in size (n = at least eight/group). […] Etoposide was prepared in 5% DMSO + 40% PEG300 + 5%Tween 80 + 50%dd water and dosed intraperitoneally QD at 1.25 mg/kg for 3 days for each week of the study. Olaparib was prepared in 10% HP-ß-CD in water and dosed intraperitoneally QD at 50 mg/kg. Tumor sizes and body weight were measured twice weekly. Tumor sizes were measured in two dimensions using a caliper, and the volume (mm^3) was calculated using the formula: V = 0.5 a x b^2 where a and b are the long and short diameters of the tumor, respectively.

[3] = target: CDK7/CycH1/MNAT1 (Homo sapiens, UniProt P50613); test: ATP-competition caliper enzyme assay; type: biochemical; conditions: 1 mM ATP
Sequence of CDK7/CycH1/MNAT1 (P50613 whole entry): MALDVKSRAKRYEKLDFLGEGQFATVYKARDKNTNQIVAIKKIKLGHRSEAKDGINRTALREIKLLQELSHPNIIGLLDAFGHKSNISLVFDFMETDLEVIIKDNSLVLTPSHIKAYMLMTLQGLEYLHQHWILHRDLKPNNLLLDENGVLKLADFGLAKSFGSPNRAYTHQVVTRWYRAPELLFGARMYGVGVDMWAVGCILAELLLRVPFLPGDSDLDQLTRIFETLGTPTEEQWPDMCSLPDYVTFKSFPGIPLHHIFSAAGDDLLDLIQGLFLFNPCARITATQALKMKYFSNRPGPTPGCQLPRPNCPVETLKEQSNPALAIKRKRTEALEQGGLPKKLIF
Sequence of CDK7/CycH1/MNAT1 (P51946 whole entry partner): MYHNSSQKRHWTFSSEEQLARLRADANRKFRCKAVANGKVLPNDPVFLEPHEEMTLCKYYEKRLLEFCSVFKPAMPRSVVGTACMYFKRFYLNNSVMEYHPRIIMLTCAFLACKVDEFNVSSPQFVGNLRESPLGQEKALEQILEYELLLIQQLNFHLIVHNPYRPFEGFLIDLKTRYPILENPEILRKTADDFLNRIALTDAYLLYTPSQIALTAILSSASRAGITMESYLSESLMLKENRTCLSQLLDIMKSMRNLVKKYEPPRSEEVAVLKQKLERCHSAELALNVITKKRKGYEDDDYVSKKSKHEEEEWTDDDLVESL
Sequence of CDK7/CycH1/MNAT1 (P51948 whole entry partner): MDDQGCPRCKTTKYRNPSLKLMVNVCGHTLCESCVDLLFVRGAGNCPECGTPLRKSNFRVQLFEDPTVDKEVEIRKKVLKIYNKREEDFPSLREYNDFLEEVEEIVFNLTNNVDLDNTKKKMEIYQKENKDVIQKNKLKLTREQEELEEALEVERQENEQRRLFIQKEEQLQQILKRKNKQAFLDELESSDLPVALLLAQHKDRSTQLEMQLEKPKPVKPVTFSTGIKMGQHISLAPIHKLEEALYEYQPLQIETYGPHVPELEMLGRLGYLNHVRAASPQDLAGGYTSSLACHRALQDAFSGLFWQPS

[4] = test system: kinases tested (n = 468); test: KINOMEscan kinome selectivity; type: binding; conditions: fraction of kinases with <10% of control at 3 μM among 468 kinases tested
[5] = target: T1, CDK7/CycH1 (Homo sapiens, UniProt P50613); test: NanoBRET target engagement assay; type: binding; conditions: HEK-293T cells transfected with CDK complex
T1 construct: expressed in transfected cells; host or cells: HEK293
T1 sequence (P50613 whole entry): as the sequence (P50613 whole entry) above
T1 sequence (P51946 whole entry partner): as the sequence (P51946 whole entry partner) above
Experimental: HEK293 cells were prepared to a final concentration of 100 000 cells/ml in 1% fetal bovine serum (FBS) Opti-MEM. Transfection mixtures were prepared with 1 μg of plasmid encoding NanoLuc-fused CDK and 9 μg of plasmid encoding cyclin, diluted in 1 ml Opti-MEM. FuGENE HD (Promega) was added to transfection mixture at a ratio of 30 μl/1 ml. After liposome formation, the lipid:DNA complex was added at a 1:20 ratio to HEK293 cells in suspension. Cells were plated in 384-well tissue culture plates and incubated overnight (20–30 h) at 37°C/5% CO2. Compounds were prepared from DMSO stock solutions and added to cell plates with a final top concentration of 10 000 nM. NanoBRET tracer solution was prepared from 100X tracer solution. For CDK1/cyclin B1, CDK9/cyclin T1, and CDK2/cyclin E1 assays, tracer K10 was used at a final concentration of 0.5 μM, 0.250 μM, and 0.125 μM, respectively. For CDK4/cyclin D1, and CDK6/cyclin D3, tracer K7 was used at a final concentration of 0.0625 μM. For CDK7/cyclin H1, tracer K7 was used at a final concentration of 0.5 μM. The plate was incubated at 37°C/5% CO2 for 2 h. NanoBRET substrate solution was prepared 15 min prior to the assay endpoint using serum-free OptiMEM. […] The plate was then shaken and read using the Perkin Elmer Envision plate reader. The donor emission was measured at 450 nm, followed by acceptor emission at 610 nm. […]

[6] = test system: OVCAR-3 cells; test: CyQuant proliferation assay; type: cell-based, human; conditions: proliferation, 5 days, mean of two independent replicates
Experimental: as §1

[7] = Pharmacokinetics (plasma concentrations after oral dose); type: in vivo, NOD-SCID mice; conditions: single p.o. dose
Excerpt: (A) Chemical structures of BLU2256. […]
family members. Error bars represent SD of at least duplicate independent experiments. (D) NanoBret assessment of BLU2256 target engagement in indicated CDK complexes expressed in HEK-293 cells. Error bars represent SD of at least duplicate independent experiments. (E) Dose-response curve for pRb T821/826 […]
Error bars represent SD of at least duplicate independent experiments. (F) Dose-response curve for pLamin S22 inhibition by BLU1851 in OVCAR-3 and COV644 cells. Error bars represent SD of duplicate independent experiments. (G) Do se -response curves in MCF-7, OVCAR-3 cells. Cells were treated with a 10- point dose response of indicated compounds and incubated for 5 days before CyQuant assay was performed. […]
Contemporaneously, cells were transfected with a 3X-FLAG donor plasmid plus a plasmid containing Cas9 and a single guide RNA (sgRNA), scramble control (sgScr), or an sgRNA targeting beta- actin (sgACTB). […] The percent body weight change is calculated by normalizing to day 0 per treatment group. […] (M) Quantification of Western blot for pRb S807/811 normalized individually to actin and then to vehicle group to calculate % inhibition. […]
(N) Relative body weight over treatment time. The percent body weight change is calculated by normalizing to day 0 per treatment group. […] The percent body weight change is calculated by normalizing to day 0 per treatment group. […]

IC50 [1]: 1280 nM
IC50 [3]: > 6670 nM
IC50 [5]: 4420 nM
IC50 [6]: 82.5 nM
pharmacokinetics compared with BLU1851 [7]: superior pharmacokinetics
SMILES: CC(C)(O)Cn1cc(-c2nc(Nc3ccc(S(N)(=O)=O)cc3F)ncc2C(F)(F)F)cn1 [BLU2256]
tumor growth inhibition ([2]; 3 mg/kg QD PO): sub-efficacious with minor tumor growth inhibition
tumor growth inhibition ([2]; 5 mg/kg BID PO): efficacious dose, inducing tumor stasis
body weight ([2]; dose titration, PO): without a change in body weight
tumor growth inhibition ([2]; dose titration, PO QD for 3 weeks): dose-dependent tumor growth inhibition
inhibition of RB1 phosphorylation in tumors ([2]; on-target activity): dose and time-dependent
Kinome S (10) [4]: 0.040
